Data on 28 compounds can be found in ChEMBL document CHEMBL2163292, “1,2,3-Triazole-containing uracil derivatives with excellent pharmacokinetics as a novel class of potent human deoxyuridine triphosphatase inhibitors” (J Med Chem, 2012).

Series [1] deals with T1, Deoxyuridine 5'-triphosphate nucleotidohydrolase, mitochondrial (Homo sapiens, UniProt P33316).
T1 sequence (P33316 whole entry): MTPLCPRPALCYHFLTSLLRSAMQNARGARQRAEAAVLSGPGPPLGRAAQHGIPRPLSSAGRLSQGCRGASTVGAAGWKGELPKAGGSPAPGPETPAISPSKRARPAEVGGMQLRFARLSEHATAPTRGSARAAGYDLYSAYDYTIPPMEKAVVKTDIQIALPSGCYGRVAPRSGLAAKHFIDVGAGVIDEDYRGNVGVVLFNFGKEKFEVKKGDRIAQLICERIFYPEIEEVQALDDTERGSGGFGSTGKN
The series is described as follows: Inhibition of human dUTPase assessed as reduction in [5-3H]dUMP production incubated for 15 mins by HPLC.

Series [2] deals with MX1. The series is described as follows: Antitumor activity against human MX1 cells xenografted in Balb/cA JcL-nu mouse assessed as tumor growth inhibition at 15 mg/kg/day, […] as continuous infusion using osmotic pump and measured twice a week relative to untreated control. In kind it is functional.
A short description of series [3]: Cytotoxicity against human HeLaS3 cells incubated for 72 hrs by crystal violet assay. It is filed as functional, cell-based. As to conditions: HeLa S3, 72 h.
The nature of series [4]: Half life in Balb/cA mouse at 50 mg/kg, po administered as single dose by reverse-phase ultra performance liquid chromatography. In kind it is ADME, organism-based. Also noted: dose 50 mg/kg, route oral. To be noted: in vivo.
Series [5] has as its system Mus musculus. The series is described as follows: Metabolic stability in Balb/cA mouse assessed as metabolite formation at 50 mg/kg, po administered as single dose measured after 0.5 hrs by reverse-phase ultra performance liquid chromatography. In kind it is ADME, organism-based. Also noted: dose 50 mg/kg, route oral. As to conditions: in vivo.
The nature of series [6]: Cmax in Balb/cA mouse at 50 mg/kg, po administered as single dose by reverse-phase ultra performance liquid chromatography. In kind it is ADME, organism-based. Also noted: dose 50 mg/kg, route oral. As to conditions: in vivo.
Series [7] can be described thus: AUC (0 to t) in Balb/cA mouse at 50 mg/kg, po administered as single dose by reverse-phase ultra performance liquid chromatography. It is filed as ADME, organism-based. Also noted: dose 50 mg/kg, route oral. To be noted: plasma.
A short description of series [8]: Tmax in Balb/cA mouse at 50 mg/kg, po administered as single dose by reverse-phase ultra performance liquid chromatography. It is filed as ADME, organism-based. Also noted: dose 50 mg/kg, route oral. To be noted: in vivo.
Series [9] relates to MX1. The series is described as follows: Potentiation of 5-FU induced antitumour activity against human MX1 cells xenografted in Balb/cA JcL-nu mouse assessed as tumor growth inhibition at 300 mg/kg/day, po for 14 days co-treated with 5-FU at 15 mg/kg/day for 14 days and measured twice weekly relative to untreated control. In kind it is functional.
Series [10] relates to Mus musculus. The series is described as follows: Toxicity in Balb/cA JcL-nu mouse xenografted with human MX1 cells assessed as body weight loss at 300 mg/kg/day, po for 14 days co-treated with 5-FU at 15 mg/kg/day for 14 days and measured twice a week relative to untreated control. In kind it is organism-based. As to conditions: in vivo, 336 h.
The subject of series [11] is MX1. The series is described as follows: Antitumor activity against human MX1 cells xenografted in Balb/cA JcL-nu mouse assessed as tumor growth inhibition at 300 mg/kg/day, po for 14 days and measured twice a week relative to untreated control. In kind it is functional. To be noted: MX1, 336 h.

For the compound `COc1ccc(CCn2nncc2CCCCn2ccc(=O)[nH]c2=O)cc1`, the IC50 (usually the concentration that gives 50% inhibition) in series [1] was above 10000 nM.

As to `CC[C@](O)(Cn1nncc1CCCCn1ccc(=O)[nH]c1=O)c1cccc(OCC2CC2)c1`, the IC50 in [1] is above 1000 nM.

Take `O=c1ccn(CCCCc2cnnn2CCc2ccccc2)c(=O)[nH]1`: the IC50 in [1] amounted to 3500 nM.

With `CC[C@@](O)(Cn1nncc1CCCCn1ccc(=O)[nH]c1=O)c1cccc(OC2CCOCC2)c1`, the IC50 in series [1] was above 1000 nM.

On to `O=c1[nH]cc(F)c(=O)[nH]1` [FLUOROURACIL], for which the inhibition in vivo (usually the drop in the measured response relative to a control, in per cent) at 15 mg/kg/day in the series on MX1 [2] was found to be 20%.

As to `COc1ccccc1CCn1nncc1CCCCn1ccc(=O)[nH]c1=O`, the half-maximal inhibitory concentration (IC50) in series [1] was 5700 nM.

With `CC[C@@](O)(Cn1nncc1CCCCn1ccc(=O)[nH]c1=O)c1cccc(OC2CCCC2)c1`, the IC50 in [1] was found to be 210 nM.

For the compound `O=c1ccn(CCCCc2cnnn2CCc2ccccc2OCC2CC2)c(=O)[nH]1`, in series [1], the IC50 is 390 nM.

With `CC[C@H](Cn1nncc1CCCCn1ccc(=O)[nH]c1=O)c1cccc(OCC2CC2)c1`, the IC50 in series [1] turned out to be 720 nM.

As for `O=c1ccn(CCCc2cnnn2CC(c2ccccc2)c2ccccc2)c(=O)[nH]1`, the IC50 in series [1] amounted to 1300 nM. Moreover, the EC50 (usually the concentration that produces a half-maximal response) in series [3] is above 100000 nM.

As to `C=CCOc1cccc([C@@](O)(CC)Cn2nncc2CCCCn2ccc(=O)[nH]c2=O)c1`, the IC50 in series [1] was determined as 360 nM.

For the compound `C[C@H](Cn1nncc1CCCCn1ccc(=O)[nH]c1=O)c1cccc(OCC2CC2)c1`, the IC50 in [1] is 870 nM.

Consider `CC[C@@](O)(Cn1nncc1CCCCn1ccc(=O)[nH]c1=O)c1cccc(OCC2CCC2)c1`, for which the IC50 in series [1] came out at 150 nM.

As for `CC[C@@](O)(Cn1nncc1CCOCn1ccc(=O)[nH]c1=O)c1cccc(OCC2CC2)c1`, the IC50 in series [1] came out at 170 nM.

On to `O=c1ccn(CCCCc2cnnn2C(c2ccccc2)c2ccccc2)c(=O)[nH]1`, for which, in series [1], the IC50 was 1600 nM.

With `CC[C@@H](Cn1nncc1CCCCn1ccc(=O)[nH]c1=O)c1cccc(OCC2CC2)c1`, in [4], the half-life (in general, the time in which the quantity being followed falls by half) is 30 min. Besides, the Stability result with Mus musculus [5] was “Unstable”. Also, in series [6], the Cmax (in general, the maximum level reached in the sampled fluid or tissue) was 8.69 µM. Besides, the 50% inhibitory concentration (IC50) in series [1] was determined as 29 nM. Also, in series [3], a half-maximal effect (EC50) was put at 22000 nM. Also, in series [7], the AUC(0-t) – broadly, the area under the concentration-time curve up to a stated or last time point – was determined as 4.56 µM·h. The Tmax (in general, the time from dosing to the highest level) in series [8] is 30 min.

Consider `CC[C@@](O)(Cn1nncc1CCCCn1ccc(=O)[nH]c1=O)c1cccc(OCC2CC2)c1`, for which, in series [4], the half-life was 60 min. The compound further came in with a Cmax in series [6] of 62.1 µM. The IC50 in series [1] was 150 nM. The compound further displayed an AUC(0-t) in series [7] of 67.4 µM·h. For the same compound, in series [8], the Tmax amounted to 30 min.

For `O=c1ccn(CCCc2cnnn2CCc2ccccc2)c(=O)[nH]1`, the IC50 in series [1] was above 10000 nM.

Consider `O=c1ccn(CCCCc2cnnn2CC(c2ccccc2)c2ccccc2)c(=O)[nH]1`, for which the IC50 in [1] came to 740 nM.

As to `CC[C@@](O)(Cn1nncc1CCCCn1ccc(=O)[nH]c1=O)c1cccc(OCC(C)C)c1`, the half-maximal inhibitory concentration (IC50) in [1] turned out to be 550 nM.

As for `O=c1ccn(CCCc2cnnn2C(c2ccccc2)c2ccccc2)c(=O)[nH]1`, in series [1], the IC50 is above 10000 nM.

Regarding `COc1cccc(CCn2nncc2CCCCn2ccc(=O)[nH]c2=O)c1`, the IC50 in series [1] came to 4100 nM.

In the case of `CC[C@](O)(Cn1nncc1CCCCn1ccc(=O)[nH]c1=O)c1ccc(F)c(OCC2CC2)c1`, the IC50 in series [1] came to 350 nM.

Turning to `CC[C@@](O)(Cn1nncc1CCCCn1ccc(=O)[nH]c1=O)c1cccc(OCC2(C)CC2)c1`, the IC50 in series [1] was 630 nM.

On to `C[C@@H](Cn1nncc1CCCCn1ccc(=O)[nH]c1=O)c1cccc(OCC2CC2)c1`, for which the IC50 in series [1] was 58 nM.

Consider `O=c1ccn(CCCCc2cnnn2CCc2cccc(OCC3CC3)c2)c(=O)[nH]1`, for which the IC50 in series [1] was determined as 210 nM. In [3], this compound returned an EC50 of 84000 nM.

Consider `CCOc1cccc([C@@](O)(CC)Cn2nncc2CCCCn2ccc(=O)[nH]c2=O)c1`, for which the IC50 in series [1] is above 1000 nM.

In turn, `CC[C@@](O)(Cn1nncc1CCCCn1ccc(=O)[nH]c1=O)c1ccc(F)c(OCC2CC2)c1` had a half-life in series [4] of 60 min. The Stability result in the series on Mus musculus [5] was “Stable”. The compound also displayed a Cmax in [6] of 49.8 µM. Further, the “inhibition (INH)” value in the series with MX1 [9] was found to be 84.9%. Besides, in series [1], the IC50 came out at 67 nM. Further, the EC50 in series [3] is 41000 nM. In the series on Mus musculus [10], the Activity result is “Non-toxic”. Moreover, in [7], the area under the curve AUC(0-t) came to 57.3 µM·h. In series [8], the Tmax was determined as 60 min. Moreover, in the series with MX1 [11], the inhibition in vivo at 300 mg/kg/day is -23.2%.
